According to the NIST ThermoML archive (doi:10.1016/j.fluid.2015.10.026):
Numbers after ± are expanded uncertainties.

Details: Liquid, Brillouin light scattering

SMILES: Cc1ccccc1 [toluene]
- speed of sound (323.15 K): 1200.8 ± 6 m/s
- speed of sound (373.15 K): 1000 ± 5 m/s
- speed of sound (423.15 K): 806 ± 5.2 m/s
- speed of sound (473.15 K): 616.2 ± 3.3 m/s
- speed of sound (523.15 K): 425.5 ± 2.4 m/s
